From patent US10668094B2, “Selective inhibitors of Alpha2-containing isoforms of Na,K-ATPase and use thereof for reduction of intraocular pressure” (Yeda Research and Development Co. Ltd., priority 2015, dated 2020)
Several values for one entry are separate records, joined by “and”; a condition that tells them apart may be missing. Equal values may be shown once. Read-outs that look alike come from different tables or passages of the source.

Assays:
[1] = biological target: human Na,K-ATPase α1β1FXYD1 (Homo sapiens (Human), UniProt P05023); type: biochemical
[2] = biological target: human Na,K-ATPase α2β1FXYD1 (Homo sapiens, UniProt P50993); type: biochemical
[3] = test system: human Na,K-ATPase α2β1FXYD1; type: biochemical
[4] = biological target: human Na,K-ATPase α2β2FXYD1 (Homo sapiens (Human), UniProt P50993); type: biochemical
[5] = biological target: human Na,K-ATPase α2β3FXYD1 (Homo sapiens (Human), UniProt P50993+P54709); test: biochemical; type: biochemical
[6] = biological target: Na,K-ATPase in bovine ciliary NPE cells (Bos taurus, UniProt A2VDL6); test: biochemical
[7] = biological target: Na,K-ATPase in bovine ciliary NPE cells (Bos taurus, UniProt Q08DA1); test: biochemical
[8] = test system: Na,K-ATPase in bovine ciliary NPE cells; test: biochemical; conditions: 1 site model; read-out: Ki, nM ± SEM
[9] = test system: 4AP-induced IOP in rabbits; type: in vivo, rabbit; conditions: one drop topically prior to 4AP
basal IOP in rabbits = test: Basal IOP in rabbits, topical administration; type: in vivo, rabbit
tissues of the eye = test: Histological examination of eye tissues after topical application for one week; type: in vivo, rabbit; conditions: one drop of 1 mM daily for one week
Protocol: In order to assess whether topical application of DcB damaged the tissues of the eye including cornea, iris, lens, cilary body, retina, choroid and sclera, a histological examination was conducted after topical application, using one drop of 1 mM DcB daily for one week in one eye of each animal, with the other eye treated topically with one drop of PBS and serving as the control. Animals were sacrificed, eyes were removed, fixed in 10% neutral buffered formalin, processed routinely for histological examination, trimmed at 4 μm, and stained with hematoxylin and eosin.

## CC1CN(C2CCC2)CCC(O[C@@H]2[C@H](C)O[C@@H](O[C@@H]3[C@H](C)O[C@@H](O[C@H]4CC[C@@]5(C)C(CCC6C5C[C@H](O)[C@]5(C)[C@@H](C7=CC(=O)OC7)CC[C@]65O)C4)C[C@@H]3O)C[C@@H]2O)O1 (some centres unmarked) [DcB]
[1]
  Ki for α1β1 lower than for digoxin: 2-3 fold
[1]; read-out: Ki in nM ± SEM α1β1
  Ki: 135 ± 11 nM
[1]; read-out: Ki of α1β1FXYD1
  Ki: 135 ± 11 nM
[2]; read-out: Ki in nM ± SEM α2β1
  Ki: 8 ± 1.25 nM
[2]; read-out: Ki of α2β1FXYD1
  Ki: 8 ± 1.25 nM
[3]
  Selectivity Ki ratio α1β1/α2β1: 16.9
[4]
  Selectivity Ki ratio α1β1/α2β2: 22.2
[4]; read-out: Ki in nM ± SEM α2β2
  Ki: 6 ± 1 nM
[5]
  Ki for α2β3 lower than for digoxin: about 10 fold
  Selectivity Ki ratio α1β1/α2β3: 33.6
  selectivity for α2β3 over α1β1 (Ki α1β1:α2β3 ratio): 33 fold
[5]; read-out: Ki in nM ± SEM α2β3
  Ki: ~4 nM and 4 nM
[6]
  Ki: 6.9 ± 2 nM
[6]; read-out: Ki α2, 2 sites model
  Ki: 6.9 nM
[7]
  Ki: 151 ± 7.6 nM
[8]
  Ki: 17.3 ± 2.5 nM
[9]
  concentration that prevents the 4AP-induced rise in IOP: 0.01 mM
Basal IOP in rabbits; 1 mM DcB, 0.005% Latanoprost
  time after which IOP returned to the control value: 12 h
Basal IOP in rabbits; 2 mM
  effect on basal IOP at higher concentration: reduces the IOP similarly to 1 mM DcB
Basal IOP in rabbits; after 3-8 hours
  steady-state IOP as % of the unchanged control values: 75-80%
Basal IOP in rabbits; after 3-8 hours, basal IOP 17-18 mmHg, 1 mM DcB, 0.005% Latanoprost
  steady-state IOP lower than basal IOP: 3.5±0.15 mmHg
Basal IOP in rabbits; one drop of 1 mM solution, other eye PBS
  effect on lowering basal IOP: notable effect
Basal IOP in rabbits; rabbit with a basal IOP of 17 mm Hg
  reduction of basal IOP: about 4 mm Hg
Basal IOP in rabbits; relative to Latanoprost
  more effective than Latanoprost in reducing basal IOP: about 25%
Basal IOP in rabbits; topical, test period of 4-5 hours
  reduction of basal IOP: 20-25%
Tissues of the eye
  histological differences between treated and untreated eyes: No significant histological differences were observed
